Assays:
human NK2-receptor [1] = molecular target: T1, human NK2-receptor (Homo sapiens, UniProt P21452); assay: Functional cellular test, Ca2+ measurements using FLIPR for NK2 activity;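 further: CHO cells stably expressing the human receptor, loaded with a calcium dye, antagonist inhibition of ligand-evoked intracellular calcium rise read as peak fluorescence change on FLIPR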
T1 sequence (P21452 1-398): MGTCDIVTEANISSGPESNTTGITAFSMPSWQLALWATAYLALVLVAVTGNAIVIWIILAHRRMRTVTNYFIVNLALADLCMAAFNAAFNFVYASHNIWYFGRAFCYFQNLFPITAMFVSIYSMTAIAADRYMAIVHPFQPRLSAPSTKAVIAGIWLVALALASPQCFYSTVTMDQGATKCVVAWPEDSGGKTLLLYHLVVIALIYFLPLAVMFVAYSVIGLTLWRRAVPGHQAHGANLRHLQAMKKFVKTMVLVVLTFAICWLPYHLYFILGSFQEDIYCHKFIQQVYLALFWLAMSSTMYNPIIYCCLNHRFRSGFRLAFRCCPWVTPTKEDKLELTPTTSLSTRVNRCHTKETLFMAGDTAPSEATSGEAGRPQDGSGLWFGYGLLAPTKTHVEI
Procedure: Functional Cellular Tests of the NK1-, NK2- and NK3-Antagonism
Functional cellular tests of the antagonistic effect of the compounds of the present invention on the human tachykinin receptors were performed in CHO cells expressing the recombinant human NK1, NK2 or NK3-receptor. In these tests the inhibition of ligand-induced increase in mobilization of intracellular calcium and inhibition of ligand-induced phosphorylation of mitogen activated protein kinase (MAPK) were determined, which can be used as a measure of functional activity of tachykinin-antagonists. Additionally, the antagonistic properties of reference compounds on the different tachykinin receptors were characterized for comparison.
The effects of test compounds were assessed using Chinese hamster ovary (CHO) fibroblast cells, stably expressing cloned human NK1, NK2 or NK3-receptors. The NK receptor is coupled to Gq. The activation of the Gq protein by ligand binding to the receptor leads to a mobilization of intracellular calcium and phosphorylation of MAPK. Both systems were used to determine functional effects of the test compounds.
Ca^2+ Measurements Using FLIPR for NK1 and NK2 Activity
For tests, cells were seeded 24 hours prior to the experiment into black 96-well microplates. The cell density was 2.2×10^4 cells/well. All steps were done under sterile conditions. In order to observe changes in intracellular calcium levels, cells were loaded with a calcium-sensitive dye. This dye (FLUO-4, from Molecular Probes) excites at 488 nm, and emits in the 500 nm to 560 nm range, only if a complex with calcium is formed. For the dye loading the growth-medium was aspirated out of the well without disturbing the confluent cell layer and 100 μl loading medium (HBSS, 4 μM FLUO-4, 0.005% (w/v) pluronic acid, 2.5 mM probenecid, 20 mM HEPES, pH 7.4) was dispensed into each well using an automatic pipettor system (Multidrop, Labsystems). Pluronic acid was added to increase dye solubility and dye uptake into the cells, whereas probenecid, an anion exchange inhibitor, was added to the loading medium to increase dye retention in the cells. The cells were incubated in a 5% CO2 incubator at 37° C. for 40 minutes. After dye loading, the cells were washed three times with wash-buffer (HBSS, 2.5 mM probenecid, 20 mM HEPES, pH 7.4) to reduce basal fluorescence. In the last washing step the buffer was aspirated and replaced with 100 μl washing buffer. […] The FLIPR setup parameters were set to 0.4 sec exposure length, filter 1, 50 μl fluid addition, pipettor height at 125 μl, dispense speed 40 μl/sec without mixing. Maximal fluorescence changes were obtained using the statistic function of the FLIPR software, and data plotted using GraphPad Prism 4. All points were expressed as a percentage inhibition of the control agonist. IC50 values were determined using sigmoidal dose-response curve fitting. Antagonist potencies (pA2) values were calculated using equation: pA2=−log(IC50/(1+[L]/EC50)),

human NK2-receptor [2] = molecular target: T1, human NK2-receptor; assay: Binding potency of the test substances to NK2-receptors in vitro ([3H]-SR 48968 displacement); set-up: expressed in transfected cells; host or cells: CHO cells (membrane preparation); settings: human NK2-receptor in CHO cell membranes, [3H]-SR 48968 (saredutant), average of at least three measurements; for Ki: read-out: pKi, binding potency to NK2-receptors (converted)
Source text: 2. Determination of the Binding Potency of the Test Substances to NK2-Receptors in Vitro
The affinity of test compounds for NK2-receptors can be determined by measuring the ability of the test compound to displace a radiolabeled ligand from its specific binding site.
(§1) The radiolabel used in this assay is [^3H]-SR 48968 (saredutant). Receptors were obtained from membrane preparations of CHO-cells (Chinese Hamster Ovary cells), in which the human NK2-receptor was stably expressed. Membranes were incubated with [^3H]-saredutant in the absence or presence of test compounds at different concentrations, diluted in a buffer system. Separation of bound radioactivity from free radioactivity was done by filtration through glass fiber filters (Packard GF/B) with several washings with ice-cold buffer solution. Bound radioactivity was measured with a liquid scintillation counter (total binding). Unspecific binding was determined by incubation with an excess (0.1 μmol/l) of unlabeled saredutant. Specific binding is obtained by subtracting the unspecific binding from the total binding.
(§2) Radioactivity of the specific binding was plotted against the concentration of the test compound and IC50 values, i.e. the concentration of test compound by which 50% of the radioligand is displaced, were calculated. The inhibition constant (Ki) was calculated according to the Cheng-Prusoff equation, and listed as its negative logarithmic value (pKi). The pKi value describes the potency of a test compound to bind to a receptor.
(§3) The average result of all measurements is listed above.

human NK3 receptor [3] = molecular target: T2, human NK3 receptor (Homo sapiens, UniProt P29371); assay: Binding potency of the test substances to NK3-receptors in vitro ([3H]-SR 142801 displacement); set-up: expressed in transfected cells; host or cells: CHO cells (membrane preparation); settings: human NK3-receptor in CHO cell membranes, [3H]-SR 142801 (osanetant), average of at least three measurements; for Ki: read-out: pKi, binding potency to NK3-receptors (converted)
T2 sequence (P29371 1-465): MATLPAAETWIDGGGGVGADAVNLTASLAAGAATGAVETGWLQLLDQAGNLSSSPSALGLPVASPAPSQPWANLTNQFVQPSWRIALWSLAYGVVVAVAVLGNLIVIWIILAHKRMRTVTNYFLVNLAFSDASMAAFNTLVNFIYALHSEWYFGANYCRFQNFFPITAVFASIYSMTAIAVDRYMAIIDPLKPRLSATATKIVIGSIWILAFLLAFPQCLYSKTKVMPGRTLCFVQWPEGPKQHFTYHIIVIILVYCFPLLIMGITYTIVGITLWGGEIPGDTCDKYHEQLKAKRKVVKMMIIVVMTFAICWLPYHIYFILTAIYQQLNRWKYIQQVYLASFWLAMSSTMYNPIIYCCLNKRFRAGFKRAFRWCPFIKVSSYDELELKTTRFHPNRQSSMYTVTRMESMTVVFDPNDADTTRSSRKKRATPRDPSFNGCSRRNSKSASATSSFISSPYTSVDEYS
Source text: 3. Determination of the Binding Potency of the Test Substances to NK3-Receptors in Vitro
The affinity of test compounds for NK3-receptors can be determined by measuring the ability of the test compound to displace a radiolabeled ligand from its specific binding site.
as §1, with “142801 (osanetant).” for “48968 (saredutant).”, “NK3-receptor” for “NK2-receptor”, “[^3H]-osanetant” for “[^3H]-saredutant”, “(1” for “(0.1”, “osanetant.” for “saredutant.”
as §2, with “(pKi)” for “(pKi).”
as §3

human NK3 receptor [4] = molecular target: T2, human NK3 receptor; assay: Functional cellular test, Ca2+ measurements using aequorin for NK3 activity; type: cell-based; set-up: expressed in transfected cells; host or cells: cell line co-expressing mitochondrially targeted apoaequorin (CHO according to b76/b77); settings: for Kb: read-out: pA2 data for NK3 (converted)

Structure (SMILES) | Kb (human NK2-receptor [1]) [nM] | Ki (human NK2-receptor [2]) [nM] | Ki (human NK3 receptor [3]) [nM] | further results
CN(C)C(=O)C1CCCCN1C1CCN(CCC(CN(C)C(=O)c2ccccc2)c2ccc(Cl)c(Cl)c2)CC1 (stereo not shown) [compound 97] | 0.251 | 2 | 79.4 | Kb (human NK3 receptor [4]): 79.4 nM
CN(C)C(=O)C1(N2CCCCC2)CCN(CCC(CN(C)C(=O)c2ccc3occc3c2)c2ccc(Cl)c(Cl)c2)CC1 (stereo not shown) [compound 68] | 10 | 2 | 10 | –
CN(C)C(=O)C1(N2CCCCC2)CCN(CCC(CN(C)C(=O)c2ccc(OC(F)(F)F)cc2)c2ccc(Cl)c(Cl)c2)CC1 (stereo not shown) [compound 55] | 2 | 6.31 | 3.98 | Kb (human NK3 receptor [4]): 7.94 nM
CN(C)C(=O)C1(N2CCCCC2)CCN(CCC(CN(C)C(=O)c2ccccn2)c2ccc(Cl)c(Cl)c2)CC1 (stereo not shown) [compound 43] | 0.631 | 0.251 | 5.01 | Kb (human NK3 receptor [4]): 31.6 nM
CN(C)C(=O)C1(N2CCCCC2)CCN(CC[C@H](CN(C)C(=O)c2ccccc2)c2ccccc2)CC1 [compound 94, 1′-[(3S)-4-[benzoyl(methyl)amino]-3-phenylbutyl]-N,N-dimethyl-1, 4′-bipiperidine-4′-carboxamide] | 1.58 | 3.16 | – | –
CC(=O)N1CCC(C(=O)N(C)CC(CCN2CCC(C(=O)N(C)C)(N3CCCCC3)CC2)c2ccc(Cl)c(Cl)c2)CC1 (stereo not shown) [compound 52] | 3.98 | 15.8 | 12.6 | –
CN(C)C(=O)C1(N2CCCCC2)CCN(CCC(CN(C)C(=O)c2cc[n+]([O-])cc2)c2ccc(Cl)c(Cl)c2)CC1 (stereo not shown) [compound 17] | 15.8 | 31.6 | – | Kb (human NK3 receptor [4]): 126 nM
CN(C)C(=O)C1(N2CCCCC2)CCN(CCC(CN(C)C(=O)c2ccc(Cl)c(S(N)(=O)=O)c2)c2ccc(Cl)c(Cl)c2)CC1 (stereo not shown) [compound 47] | – | 3.16 | 20 | –
CN(C)C(=O)C1(N2CCCCC2)CCN(CC[C@H](CN(C)C(=O)c2ccccc2O)c2ccc(Cl)c(Cl)c2)CC1 [compound 12] | – | – | – | pA2 data for NK2 (human NK2-receptor [1]; CHO cells, human NK2, FLIPR Ca2+, agonist NKA 10^-7 M): 8.3; pKi, binding potency to NK2-receptors (human NK2-receptor [2]): 8.7; pKi, binding potency to NK3-receptors (human NK3 receptor [3]): 7.9; pA2 data for NK3 (human NK3 receptor [4]; cell line with human NK3 receptor and apoaequorin, agonist senktide 5x10-8 M): 7.9
CN(C)C(=O)C1(N2CCCCC2)CCN(CCC(CN(C)C(=O)c2ccoc2)c2ccc(Cl)c(Cl)c2)CC1 (stereo not shown) [compound 36] | 0.501 | 1.58 | 5.01 | Kb (human NK3 receptor [4]): 63.1 nM
CN(C)C(=O)C1(N2CCCCC2)CCN(CCC(CN(C)C(=O)c2c(Cl)cccc2Cl)c2ccc(Cl)c(Cl)c2)CC1 (stereo not shown) [compound 76] | – | 15.8 | 50.1 | –
CN(C)C(=O)C1(N2CCCCC2)CCN(CCC(CN(C)C(=O)Cc2ccncc2)c2ccc(Cl)c(Cl)c2)CC1 (stereo not shown) [compound 51] | 39.8 | 79.4 | 6.31 | Kb (human NK3 receptor [4]): 31.6 nM
CN(C)C(=O)C1(N2CCCCC2)CCN(CCC(CN(C)C(=O)c2c(-c3ccccc3)oc3ccccc3c2=O)c2ccc(Cl)c(Cl)c2)CC1 (stereo not shown) [compound 21] | – | 12.6 | 63.1 | –
CN(C)C(=O)C1(N2CCCCC2)CCN(CCC(CN(C)C(=O)Cc2ccccn2)c2ccc(Cl)c(Cl)c2)CC1 (stereo not shown) [compound 49] | – | 10 | 7.94 | –
CC(=O)Oc1ccc(C(=O)N(C)C[C@@H](CCN2CCC(C(=O)N(C)C)(N3CCCCC3)CC2)c2ccc(Cl)c(Cl)c2)cc1 [compound 5, 4-({[(2S)-2-(3,4-dichlorophenyl)-4-{4′-[(dimethylamino)-carbonyl]-1,4′-bipiperidin-1′-yl}butyl](methyl)amino}carbonyl)phenyl acetate] | 3.16 | 1 | 5.01 | Kb (human NK3 receptor [4]): 3.16 nM
CN(C)C(=O)C1(N2CCCCC2)CCN(CCC(CN(C)C(=O)Cc2ccccc2)c2ccc(Cl)c(Cl)c2)CC1 (stereo not shown) [compound 89] | – | 12.6 | 15.8 | –
CN(C)C(=O)C1(N2CCCCC2)CCN(CCC(CN(C)C(=O)c2cccc(F)c2)c2ccc(Cl)c(Cl)c2)CC1 (stereo not shown) [compound 79] | – | 2 | 20 | –
CN(C)C(=O)C1(N2CCCCC2)CCN(CCC(CN(C)C(=O)c2ccco2)c2ccc(Cl)c(Cl)c2)CC1 (stereo not shown) [compound 31] | – | 3.98 | 39.8 | –
CN(C)C(=O)C1(N2CCCCC2)CCN(CCC(CN(C)C(=O)c2ccc(OC(F)(F)F)cc2)c2ccc(Cl)c(Cl)c2)CC1 (stereo not shown) [compound 26] | – | 5.01 | 50.1 | –
CN(C)C(=O)C1(N2CCCCC2)CCN(CCC(CN(C)C(=O)c2ccc3c(c2)OC(F)(F)O3)c2ccc(Cl)c(Cl)c2)CC1 (stereo not shown) [compound 63] | – | 3.98 | 20 | –
CN(C)C(=O)C1(N2CCCCC2)CCN(CCC(CN(C)C(=O)CCc2ccc(O)cc2)c2ccc(Cl)c(Cl)c2)CC1 (stereo not shown) [compound 29] | – | 2.51 | 50.1 | –
CN(C[C@@H](CCN1CCC(C(=O)N2CCCC2)(N2CCCCC2)CC1)c1ccc(Cl)c(Cl)c1)C(=O)c1ccccc1 [compound 124, N-{(2S)-2-(3,4-dichlorophenyl)-4-[4′-(pyrrolidin-1-ylcarbonyl)-1,4′-bipiperidin-1′-yl]butyl}-N-methylbenzamide] | – | 1 | 15.8 | –
CN(C)C(=O)C1(N2CCCCC2)CCN(CCC(CN(C)C(=O)Cc2cccnc2)c2ccc(Cl)c(Cl)c2)CC1 (stereo not shown) [compound 50] | – | 39.8 | 10 | –
CN(C)C(=O)C1(N2CCCCC2)CCN(CCC(CN(C)C(=O)c2cccn2C)c2ccc(Cl)c(Cl)c2)CC1 (stereo not shown) [compound 30] | – | 2.51 | 20 | –
CN(C)C(=O)C1(N2CCCCC2)CCN(CCC(CN(C)C(=O)C2CCOCC2)c2ccc(Cl)c(Cl)c2)CC1 (stereo not shown) [compound 53] | – | – | 3.16 | Kb (human NK3 receptor [4]): 50.1 nM
COc1ccc(C(=O)N(C)CC(CCN2CCC(C(=O)N(C)C)(N3CCCCC3)CC2)c2ccc(Cl)c(Cl)c2)cc1 (stereo not shown) [compound 85] | – | 12.6 | 50.1 | –
CN(C)C(=O)C1(N2CCCCC2)CCN(CCC(CN(C)C(=O)c2c(F)cccc2F)c2ccc(Cl)c(Cl)c2)CC1 (stereo not shown) [compound 74] | – | 3.98 | 25.1 | –
CN(C)C(=O)C1(N2CCCCC2)CCN(CCC(CN(C)C(=O)c2ccc(C#N)cc2)c2ccc(Cl)c(Cl)c2)CC1 (stereo not shown) [compound 91] | – | 7.94 | 15.8 | –

Reference: US20070219214A1, “Dual NK2/NK3-antagonists, pharmaceutical compositions comprising them, and processes for their preparation” (Solvay pharmaceuticals GmbH, priority 2006, published 2007)
